Data from US10604521B2, “Crystalline forms of PLX3397 hydrochloride, processes for preparation and use thereof” (Crystal Pharmaceutical (Suzhou) Co., Ltd., priority 2016, dated 2020).
Structures can show the parent of a compound that is named as a salt.

How the values were obtained:
[1] = stored at 80° C. for 7 days; cited from earlier work
[2] = Dynamic solubility (saturated solutions, HPLC); assay type: physicochemical; conditions: monohydrochloride
Description: High Performance Liquid Chromatography (HPLC) data in the present disclosure are collected from Agilent 1100 with diode array detector (DAD). The HPLC method parameters for solubility test in the present disclosure are as follows:
4. Injection Volume: 4 μL
5. Detection wavelength: 230 nm
6. Column Temperature: 40° C.
7. Diluent: 50% Acetonitrile
Form CS2 of the present disclosure and Form C of WO2016179415 were suspended into SGF (Simulated gastric fluids) and water to get saturated solutions. After equilibrated for 1 h and 4 h, concentrations of the saturated solutions were measured by HPLC.

[3] = Particle size distribution (PSD), laser particle size analyzer, wet process; assay type: physicochemical; conditions: volume distribution, dispersion medium Isopar G
Description: The particle size distribution test in the present disclosure is acquired by the S3500 laser particle size analyzer of Microtrac. Microtrac S3500 is equipped with the SDC (Sample Delivery Controller). The test is carried out by wet process, and the dispersion medium is Isopar G The parameters are as follow: [table] Mv: Average particle size calculated by volume. D10: particle size which accounts for 10% of the particle size distribution (volume distribution). D50: particle size which accounts for 50% of the particle size distribution (volume distribution), also known as the median particle size. D90: particle size which accounts for 90% of the particle size distribution (volume distribution). PSD was performed on Form CS3 of the present disclosure and Form C of WO2016179415.

[4] = Mechanical stability: grinding in agate mortar, XRPD; assay type: physicochemical; conditions: grinding for 5 minutes in agate mortar
Description: A certain amount of Form C of WO2016179415, Form CS2 and Form CS3 samples were placed in an agate mortar. After grinding for 5 minutes, the obtained solid was collected for XRPD characterization. The results of Form C of WO2016179415, Form CS2 and Form CS3 were substantially as depicted in FIG. 16, FIG. 17 and FIG. 18, respectively.

[5] = Stability assessment of Form CS2 stored at 5° C. (XRPD and HPLC); assay type: physicochemical; conditions: for Purity: HPLC; for Solid Form: XRPD
Description: Form CS2 of the present disclosure was stored at 5° C. Samples were taken after 15 and 30 days to test XRPD and HPLC. The stability of From CS2 was mainly investigated. […] XRPD patterns overlay before and after storage for 30 days was substantially as depicted in FIG. 14.

[6] = Hygroscopicity test by dynamic vapor sorption (DVS), XRPD before and after; assay type: physicochemical; conditions: 40%-95%-0-95% RH cycle at 25° C.
Description: Dynamic Vapor Sorption (DVS) is measured via a SMS (Surface Measurement Systems Ltd.) intrinsic DVS. Typical Parameters for DVS test are as follows: Temperature: 25° C. Gas and flow rate: N2, 200 mL/min dm/dt: 0.002%/min RH range: 0% RH to 95% RH 6.2 mg of monohydrochloride Form CS2 was placed into dynamic vapor sorption (DVS) instrument, and then went through a 40%-95%-0-95% RH cycle at 25° C. The DVS plot was substantially as depicted in FIG. 10. The XRPD patterns overlay of solids before and after DVS test was substantially as depicted in FIG. 11 (Top: XRPD pattern before DVS; Bottom: XRPD pattern after DVS). […] 7.9 mg of dihydrochloride Form CS3 was placed into dynamic vapor sorption (DVS) instrument, and then went through a 40%-95%-0-95% RH cycle at 25° C. The DVS plot was substantially as depicted in FIG. 12. The XRPD patterns overlay of solids before and after DVS test was substantially as depicted in FIG. 13 (Top: XRPD pattern before DVS; Bottom: XRPD pattern after DVS).

[7] = Stability assessment of Form CS3 stored at 25° C./60% RH; assay type: physicochemical
Description: Form CS3 of the present disclosure was stored at 25° C./60% RH for 90 days. Samples were taken after 15, 30 and 90 days to investigate the stability of From CS3. […] XRPD patterns overlay before and after storage for 90 days was substantially as depicted in FIG. 15.

In the case of `FC(F)(F)c1ccc(CNc2ccc(Cc3c[nH]c4ncc(Cl)cc34)cn2)cn1` [Form A, PLX3397 monohydrochloride], the “Form change on storage” value [1] is given as “converted to Form C”.

Work on `FC(F)(F)c1ccc(CNc2ccc(Cc3c[nH]c4ncc(Cl)cc34)cn2)cn1` [Form C, PLX3397 monohydrochloride, reference compound] yielded a Solubility ([2]; H2O, 1 h) of 80 µg/mL, a Solubility ([2]; H2O, 4 h) of 600 µg/mL and a Solubility ([2]; SGF, 1 h) of 490 µg/mL. For the same compound, the Solubility ([2]; SGF, 4 h) was 560 µg/mL, the “D(10)” value ([3]; monohydrochloride) was 2.35 μm and the “D(50)” value ([3]; monohydrochloride) was 18.26 μm. The “D(90)” value ([3]; monohydrochloride) was 118.8 μm and the “Crystalline form after grinding” value ([4]; listed as Form C of WO2016179415, monohydrochloride) was “substantially changed to amorphous”.

In the case of `FC(F)(F)c1ccc(CNc2ccc(Cc3c[nH]c4ncc(Cl)cc34)cn2)cn1` [Form CS2, PLX3397 monohydrochloride], the Solubility ([2]; H2O, 1 h) is reported as 2170 µg/mL, the Solubility ([2]; H2O, 4 h) is reported as 1290 µg/mL and the Solubility ([2]; SGF, 1 h) is reported as 1130 µg/mL. The Solubility ([2]; SGF, 4 h) was 1280 µg/mL, the Purity ([5]; 15 days) was 99.45% and the “Solid Form” value ([5]; 15 days) was “No form change”. For the same compound, the Purity ([5]; 30 days) was 99.44%, the “Solid Form” value ([5]; 30 days) was “No form change” and the Purity ([5]; Initial) was 99.53%. For the same compound, the “Solid Form” value ([5]; Initial) was “No form change”, the “Form change after DVS test” value [6] was “No form change” and the “Crystalline form after grinding” value ([4]; monohydrochloride) was “crystallinity of Form CS2 and Form CS3 decreased but the crystalline forms remained unchanged”.

In the case of `FC(F)(F)c1ccc(CNc2ccc(Cc3c[nH]c4ncc(Cl)cc34)cn2)cn1` [Form CS3, PLX3397 dihydrochloride], the Purity ([7]; 15 days) is reported as 99.60%, the “Solid Form” value ([7]; 15 days) is reported as “No form change” and the Purity ([7]; 30 days) is reported as 99.64%. The “Solid Form” value ([7]; 30 days) was “No form change”, the Purity ([7]; 90 days) was 99.50% and the “Solid Form” value ([7]; 90 days) was “No form change”. The Purity ([7]; Initial) was 99.51%, the “Solid Form” value ([7]; Initial) was “No form change” and the “Form change after DVS test” value [6] was “No form change”. The “D(10)” value ([3]; dihydrochloride) was 6.55 μm, the “D(50)” value ([3]; dihydrochloride) was 47.85 μm and the “D(90)” value ([3]; dihydrochloride) was 194.3 μm. The “Crystalline form after grinding” value ([4]; dihydrochloride) was “crystallinity of Form CS2 and Form CS3 decreased but the crystalline forms remained unchanged”.
